Source: paper PMC9979163, “Discovery and functional characterization of N-(thiazol-2-yl)-benzamide analogs as the first class of selective antagonists of the Zinc-Activated Channel (ZAC)” (Biochemical pharmacology, 2021)

The compounds below were run against T1, ZAC (Homo sapiens, UniProt Q401N2) (assay: TEVC recordings, Zn2+-evoked currents at ZAC expressed in Xenopus oocytes). Settings: 1 mM Zn2+ as agonist, tested at three concentrations (0.3-3-30 μM or 1-10-100 μM).
T1 sequence (Q401N2 26-412): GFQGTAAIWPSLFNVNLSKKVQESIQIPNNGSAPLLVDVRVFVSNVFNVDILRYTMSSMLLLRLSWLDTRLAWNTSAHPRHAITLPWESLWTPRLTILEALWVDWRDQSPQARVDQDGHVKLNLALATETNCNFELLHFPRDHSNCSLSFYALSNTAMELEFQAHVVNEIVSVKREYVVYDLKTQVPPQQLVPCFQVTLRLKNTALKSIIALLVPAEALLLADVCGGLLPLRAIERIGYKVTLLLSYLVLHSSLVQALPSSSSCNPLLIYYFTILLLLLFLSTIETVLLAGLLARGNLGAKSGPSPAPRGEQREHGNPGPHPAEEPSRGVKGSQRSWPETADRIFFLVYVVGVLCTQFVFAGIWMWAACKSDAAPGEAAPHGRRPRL
Type: cell-based
Procedure: The cDNAs for the various WT and chimeric CLR subunits were linearized and subsequently transcribed and capped mMessage mMachine T7 RNA transcription kit (Ambion, Waltham, MA). Different amounts of cRNA mixtures were injected for ZAC (9.2–36.8 nL in a concentration of 0.05 μg/μL), […] nAChR (9.2–36.8 nL in a concentration of 0.1 μg/μL of each subunit in a ratio of 1:1), hα1 GlyR (9.2–36.8 nL in a concentration of 0.05 μg/μL), hα1β2γ2s GABAAR (9.2–36.8 nL in a concentration of 0.05 μg/μL of each subunit in a ratio of 1:1:3), m5-HT3AR (9.2–36.8 nL in a concentration of 0.05 μg/μL), m5-HT3A/ZAC (9.2–36.8 nL in a concentration of 0.207 μg/μL), and ZAC/hai-Gly (9.2–36.8 nL in a concentration of 0.206 μg/μL). Oocytes were incubated in a sterile modified Barth’s solution [88 mM NaCl, 1 mM KCl, 15 mM HEPES (pH 7.5), 2.4 mM NaHCO3, 0.41 mM CaCl2, 0.82 mM MgSO4, 0.3 mM Ca(NO3)2, 100 U/ml penicillin and 100 μg/ml strep-tomycin] at 18 °C for 2 days after injection.
On the day of experiment, all compound dilutions were prepared in a saline solution [115 mM NaCl, 2.5 mM KCl, 10 mM MOPS (pH 7.5), 1.8 mM CaCl2, 0.1 mM MgCl2] and pH adjusted to 7.5 (if needed). Oocytes were placed in a recording chamber continuously perfused with this saline solution, and the compounds were applied in the perfusate. Both voltage and current electrodes were agar-plugged with 3 M KCl with a resistance of 0.2–2.0 MΩ. Oocytes were voltage-clamped at −50 mV (unless otherwise stated) by a Gene Clamp 500B amplifier (Axon Instruments, Union City, CA), while current signals were digitized by a Digidata 1320. Currents were recorded using pCLAMP 10 (Molecular Devices, Sunnyvale, CA). The recordings were performed at room temperature.
In all recordings, the compounds or compound combinations were applied in the bath until the peak current decayed to a steady state (up to 30 sec at the most). […] The functional properties of the modulators at the CLRs were determined by pre-application of the modulator to the perfusate 30 sec and followed by co-application of the modulator and the agonist to the perfusate. In all recordings, washes of 1–5 min were executed between the applications to prevent receptor desensitization, the duration of these washes depending on the kinetics of the respective receptors and the “stickyness” of the respective compounds. […] For the selectivity and mode-of-action studies, the agonist concentrations used for different CLRs or chimeric CLRs were in the EC20–EC40 range (verified on the day of experiment), as this enabled us to investigate both for putative positive and negative receptor modulation exerted by TTFB (hα3β4 nAChR, 3 μM (S)-nicotine; m5-HT3AR, 2 μM 5-HT; hα1 GlyR, 100 μM glycine; hα1β2γ2S GABAAR, 30 μM GABA; m5-HT3A/ZAC, 0.3 μM 5-HT; ZAC/hɑ1-Gly, 2 μM Zn^2+).
Data analysis of the results from the TEVC recordings were performed using Clampfit software version 10.5 (Molecular Devices, Crawley, UK) and GraphPad Prism version 7.0c (GraphPad Software, Inc. La Jolla, CA). Data for the test compounds were normalized to either the maximal agonist-evoked current or to an EC20–EC50-mediated response elicited by the agonist on each oocyte (specified in each case). Unless otherwise stated, data for agonist-induced responses in the presence of the antagonists were extracted from the plateau (or steady-state) of the agonist-evoked current. Concentration-response and concentration-inhibition curves were fitted in GraphPad Prism by nonlinear regression using the equation for sigmoidal dose-response with variable slope. I-V relationships were analyzed by fitting the curves with a third order polynomial model. Each data point represents the mean ± S.E.M. value of recordings performed on at least five oocytes from at least two different batches.

| Compound | Antagonist activity at ZAC in SAR study (in words) |
| --- | --- |
| Cc1cnc(NC(=O)c2cc(Br)ccc2Cl)s1 [2a] | inactivity |
| CC(C)(C)c1csc(NC(=O)c2cc(Br)ccc2Cl)n1 [2b] | slightly more potent and efficacious ZAC inhibition than 1 |
| CCOC(=O)Cc1csc(NC(=O)c2cc(Br)ccc2Cl)n1 [2c] | slightly more potent and efficacious ZAC inhibition than 1 |
| Cc1ccc(-c2csc(NC(=O)c3cc(Br)ccc3Cl)n2)cc1 [2d] | reduced substantially |
| O=C(Nc1nc2ccccc2s1)c1cc(Br)ccc1Cl [2e] | substantial loss of activity |
| O=C(Nc1nnc(C2CCCCC2)s1)c1cc(Br)ccc1Cl [2f] | substantial loss of activity |
| CCc1nc(NC(=O)c2cccc(Br)c2)sc1C(=O)OC [3a] | inactive |
| CCOC(=O)c1sc(NC(=O)c2cccc(Br)c2)nc1C [3b] | inactive |
| Cc1csc(NC(=O)c2cccc(Br)c2)n1 [3c] | weak ZAC activity |
| CC(C)(C)c1csc(NC(=O)c2cccc(Br)c2)n1 [3d] | fairly potent |
| O=C(Nc1nc(-c2ccc(Br)s2)cs1)c1cccc(Br)c1 [3e] | eliminated ZAC activity completely |
| O=C(Nc1ncc([N+](=O)[O-])s1)c1cccc(Br)c1 [3f] | weaker antagonists |
| Cc1nc(NC(=O)c2cccc(Br)c2)sc1C [3g] | considerably weaker antagonist |
| CC(C)(C)c1nnc(NC(=O)c2cccc(Br)c2)s1 [3k] | essentially eliminated ZAC activity |
| COC(=O)c1sc(NC(=O)c2ccccc2C)nc1C [4a] | essentially inactive |
| COC(=O)c1sc(NC(=O)c2ccc(C)cc2)nc1C [4b] | essentially inactive |
| COC(=O)c1sc(NC(=O)c2cccc(I)c2)nc1C [4c] | did not alter its antagonist activity substantially |
| COC(=O)c1sc(NC(=O)c2cc(C)cc(C)c2)nc1C [4d] | did not alter its antagonist activity substantially |
| COC(=O)c1sc(NC(=O)c2cc([N+](=O)[O-])cc([N+](=O)[O-])c2)nc1C [4e] | completely devoid of antagonist activity |
| COC(=O)c1sc(NC(=O)c2cc([N+](=O)[O-])ccc2Cl)nc1C [4f] | inactive |

| Compound | Antagonist activity at ZAC in SAR study (in words) |
| --- | --- |
| CCOc1ccc(C(=O)Nc2nc(C)c(C(=O)OC)s2)cc1Br [4g] | inactive |
| COC(=O)c1sc(NC(=O)c2ccncc2)nc1C [4h] | inactive |
| CCOC(=O)c1sc(NC(=O)c2ccccc2Cl)nc1C [4i] | inactive |
| CCOC(=O)c1sc(NC(=O)c2cc(Cl)cc(Cl)c2)nc1C [4j] | inactive |
| CCOC(=O)c1sc(NC(=O)c2cc(Cl)ccc2OC)nc1C [4k] | inactive |
| CCOC(=O)c1sc(NC(=O)c2cc(OC)c(OC)c(OC)c2)nc1C [4l] | essentially inactive |
| C=CCN(CC=C)S(=O)(=O)c1ccc(C(=O)Nc2nc(C)c(C(=O)OCC)s2)cc1 [4m] | inactive |
| CCOC(=O)c1sc(NC(=O)c2cccnc2)nc1C [4n] | inactive |
| CCOC(=O)c1sc(NC(=O)c2ccco2)nc1C [4o] | inactive |
| CC(C)(C)c1csc(NC(=O)c2c(F)c(F)c(F)c(F)c2F)n1 [5b] | considerably weaker ZAC antagonist |
| CN(C)c1cccc(C(=O)Nc2nc(C(C)(C)C)cs2)c1 [5f] | roughly equipotent with 2b |
| COc1ccc(Cl)cc1C(=O)Nc1nc(C(C)(C)C)cs1 [5g] | somewhat potent but apparent partial inhibition |
| CC(C)(C)c1csc(NC(=O)c2cc(F)c(F)cc2Cl)n1 [5h] | lower potency as ZAC antagonist than 2b |
| COc1cc(C(=O)Nc2nc(C(C)(C)C)cs2)cc(OC)c1OC [5i] | essentially inactive |
| O=C(Nc1nccs1)c1cc(F)c(F)cc1Cl [6a] | inactivity |
| Cc1cnc(NC(=O)c2cc(F)c(F)cc2Cl)s1 [6b] | inactivity |
| CC(=O)c1sc(NC(=O)c2cc(F)c(F)cc2Cl)nc1C [6c] | inactivity |
| CCOC(=O)Cc1csc(NC(=O)c2cc(Cl)cc(Cl)c2)n1 [6g] | inactivity |
| CN(C)c1cccc(C(=O)Nc2nc(C3CC3)cs2)c1 [6l] | decreased antagonist potency |
| CC(C)c1csc(NC(=O)c2cccc(Nc3ncccn3)c2)n1 [6m] | further reduced ZAC activity |

Same assay, conditions: Zn2+ (1 mM) as agonist, TEVC

| Compound | Fitted inhibition range, Inhibition (%) | Hill coefficient nH ± S.E.M. |
| --- | --- | --- |
| CC(C)(C)c1csc(NC(=O)c2cc(Br)ccc2Cl)n1 [2b] | 88 ± 3 | −1.2 ± 0.12 |
| COC(=O)c1sc(NC(=O)c2cccc(I)c2)nc1C [4c] | 78 ± 3 | −0.89 ± 0.06 |

Same assay, conditions: Zn2+ (1 mM) as agonist, TEVC, steady-state current; read-out: IC50

| Compound | IC50 [nM] |
| --- | --- |
| O=C(Nc1ncc([N+](=O)[O-])s1)c1cccc(Br)c1 [3f] | ~20000 |

Same assay, conditions: Zn2+ (1 mM) as agonist, TEVC, steady-state current; read-out: pIC50 ± S.E.M. (converted)

| Compound | IC50 [nM] |
| --- | --- |
| CC(C)(C)c1csc(NC(=O)c2cc(Br)ccc2Cl)n1 [2b] | 1320 |
| COC(=O)c1sc(NC(=O)c2cccc(I)c2)nc1C [4c] | 1020 |

Same assay, conditions: Zn2+ (1 mM), full concentration-inhibition curves

| Compound | Extent of inhibition of Zn2+-induced responses (in words) |
| --- | --- |
| CC(C)(C)c1csc(NC(=O)c2cc(Br)ccc2Cl)n1 [2b] | completely |
| COC(=O)c1sc(NC(=O)c2cccc(I)c2)nc1C [4c] | completely |
